Tests used:
Format in all cases: in vivo
[1] = test system: boll weevil (Anthonomus grandis); test: Action on boll weevil, eggs on insect diet in 96-well microtiter plates; details: 120 h, 800 ppm, egg and larval mortality visually assessed after 5 days, read-out: mortality in comparison with untreated controls
Method: Example B3: Action on Boll Weevil (Anthonomus grandis)
For evaluating control of boll weevil (Anthonomus grandis) the test unit consisted of 96-well-microtiter plates containing an insect diet and 5-10 A. grandis eggs.
(§1) The compounds were formulated using a solution containing 75% v/v water and 25% v/v DMSO. Different concentrations of formulated compounds were sprayed onto the insect diet at 5 μl, using a custom built micro atomizer, at two replications.
After application, microtiter plates were incubated at about 25±1° C. and about 75±5% relative humidity for 5 days. Egg and larval mortality was then visually assessed.

[2] = test system: yellow fever mosquito (Aedes aegypti); test: whole plant or invertebrate; details: 48 h, larval mortality visually assessed after 2 days, read-out: mortality in comparison with untreated controls
Method: Example B1: Action on Yellow Fever Mosquito (Aedes aegypti)
For evaluating control of yellow fever mosquito (Aedes aegypti) the test unit consisted of 96-well-microtiter plates containing 200 μl of tap water per well and 5-15 freshly hatched A. aegypti larvae.
The active compounds were formulated using a solution containing 75% (v/v) water and 25% (v/v) DMSO. Different concentrations of formulated compounds or mixtures were sprayed onto the insect diet at 2.5 μl, using a custom built micro atomizer, at two replications.
After application, microtiter plates were incubated at 28+1° C., 80+5% RH for 2 days. Larval mortality was then visually assessed.

[3] = test system: Mediterranean fruitfly (Ceratitis capitata); test: Action on Mediterranean fruitfly, eggs on insect diet in microtiter plates; details: 120 h, egg and larval mortality visually assessed after 5 days, read-out: mortality in comparison with untreated controls
Method: Example B5: Action on Mediterranean Fruitfly (Ceratitis capitata)
For evaluating control of Mediterranean fruitfly (Ceratitis capitata) the test unit consisted of microtiter plates containing an insect diet and 50-80 C. capitata eggs.
as §1
After application, microtiter plates were incubated at about […] and about 80+5% relative humidity for 5 days. Egg and larval mortality was then visually assessed.

[4] = test system: Silverleaf Whitefly (Bemisia argentifolii) (Adults); test: Action on silverleaf whitefly adults, sprayed cotton plants; details: 72 h, 3 days after treatment, read-out: mortality in comparison with untreated controls
Method: Example B4: Action on Silverleaf Whitefly (Bemisia argentifolii) (Adults)
(§2) The active compounds were formulated by a Tecan liquid handler in 100% cyclohexanone as a 10,000 ppm solution supplied in tubes. The 10,000 ppm solution was serially diluted in 100% cyclohexanone to make interim solutions. These served as stock solutions for which final dilutions were made by the Tecan in 50% acetone:50% water (v/v) into 5 or 10 ml glass vials. A nonionic surfactant (Kinetic®) was included in the solution at a volume of 0.01% (v/v). The vials were then inserted into an automated electrostatic sprayer equipped with an atomizing nozzle for application to plants/insects.
Cotton plants at the cotyledon stage (one plant per pot) were sprayed by an automated electrostatic plant sprayer equipped with an atomizing spray nozzle. The plants were dried in the sprayer fume hood and then removed from the sprayer. Each pot was placed into a plastic cup and about 10 to 12 whitefly adults (approximately 3-5 days old) were introduced. The insects were collected using an aspirator and a nontoxic Tygon® tubing connected to a barrier pipette tip. The tip, containing the collected insects, was then gently inserted into the soil containing the treated plant, allowing insects to crawl out of the tip to reach the foliage for feeding. Cups were covered with a reusable screened lid. Test plants were maintained in a growth room at about 25° C. and about 20-40% relative humidity for 3 days, avoiding direct exposure to fluorescent light (24 hour photoperiod) to prevent trapping of heat inside the cup. Mortality was assessed 3 days after treatment, compared to untreated control plants.

[5] = test system: tobacco budworm (Heliothis virescens); test: Action on tobacco budworm, eggs on insect diet in 96-well microtiter plates; details: 120 h, egg and larval mortality visually assessed after 5 days, read-out: mortality in comparison with untreated controls
Method: Example B6: Action on Tobacco Budworm (Heliothis virescens)
For evaluating control of tobacco budworm (Heliothis virescens) the test unit consisted of 96-well-microtiter plates containing an insect diet and 15-25 H. virescens eggs.
The compounds were formulated using a solution containing 75% v/v water and 25% v/v DMSO. Different concentrations of formulated compounds were sprayed onto the insect diet at 10 μl, using a custom built micro atomizer, at two replications.
After application, microtiter plates were incubated at about 28±1° C. and about 80±5% relative humidity for 5 days. Egg and larval mortality was then visually assessed.

[6] = test system: Diamond Back Moth (Plutella xylostella); test: Action on diamond back moth, dipped cabbage leaves; details: 3rd instar larvae, 72 hours after treatment, read-out: mortality in comparison with untreated controls
Method: Example B9: Action on Diamond Back Moth (Plutella xylostella)
The active compound is dissolved at the desired concentration in a mixture of 1:1 (vol:vol) distilled water:acetone. Surfactant (Kinetic® HV) is added at a rate of 0.01% (vol/vol). The test solution is prepared at the day of use.
Leaves of cabbage were dipped in test solution and air-dried. Treated leaves were placed in petri dishes lined with moist filter paper and inoculated with ten 3rd instar larvae. Mortality was recorded 72 hours after treatment. Feeding damages were also recorded using a scale of 0-100%.

[7] = test system: Southern Armyworm (Spodoptera eridania), 2nd instar larvae; test: Action on southern armyworm 2nd instar larvae, sprayed lima bean plants; details: 96 h, 4 days after treatment, read-out: mortality in comparison with untreated controls
Method: Example B10: Action on Southern Armyworm (Spodoptera eridania), 2nd Instar Larvae
as §2, with “into 10” for “into 5”, “or 20” for “or 10”
Lima bean plants (variety Sieva) were grown 2 plants to a pot and selected for treatment at the 1st true leaf stage. Test solutions were sprayed onto the foliage by an automated electrostatic plant sprayer equipped with an atomizing spray nozzle. The plants were dried in the sprayer fume hood and then removed from the sprayer. Each pot was placed into perforated plastic bags with a zip closure. About 10 to 11 armyworm larvae were placed into the bag and the bags zipped closed. Test plants were maintained in a growth room at about 25° C. and about 20-40% relative humidity for 4 days, avoiding direct exposure to fluorescent light (24 hour photoperiod) to prevent trapping of heat inside the bags. Mortality and reduced feeding were assessed 4 days after treatment, compared to untreated control plants.

[8] = test system: Orchid Thrips (Dichromothrips corbetti); test: Action on orchid thrips, floral-immersion technique; details: adult thrips, 72 hours after treatment, read-out: mortality in comparison with untreated controls
Method: Example B2: Action on Orchid Thrips (Dichromothrips Corbetti)
Dichromothrips corbettiadults used for bioassay were obtained from a colony maintained continuously under laboratory conditions. For testing purposes, the test compound is diluted in a 1:1 mixture of acetone:water (vol:vol), plus Kinetic® HV at a rate of 0.01% v/v.
Thrips potency of each compound was evaluated by using a floral-immersion technique. All petals of individual, intact orchid flowers were dipped into treatment solution and allowed to dry in Petri dishes. Treated petals were placed into individual re-sealable plastic along with about 20 adult thrips. All test arenas were held under continuous light and a temperature of about 28° C. for duration of the assay. After 3 days, the numbers of live thrips were counted on each petal. The percent mortality was recorded 72 hours after treatment.

CC(C)c1ccccc1N1C(=O)CS/C1=N\N=C\c1ccc2c(ccc3c(-c4ccc(OC(F)(F)F)cc4)n(C)nc32)n1 [Compound C-20, (2Z)-3-(2-isopropylphenyl)-2-[(E)-[2-methyl-3-[4-(trifluoromethoxy)phenyl]pyrazolo[3,4-f]quinolin-7-yl]methylenehydrazono]thiazolidin-4-one]
≥ 75%: mortality at 800 ppm [1] | mortality at 800 ppm [2] | mortality at 800 ppm [3] | mortality at 500 ppm [4] | mortality at 800 ppm [5] | mortality at 500 ppm [6] | mortality at 500 ppm [7]

CC(C)c1ccccc1N1C(=O)CS/C1=N\N=C\c1cnc2c(ccc3c2ncn3-c2ccc(OC(F)(F)F)cc2)c1 [Compound C-17, (2Z)-3-(2-isopropylphenyl)-2-[(E)-[3-[4-(trifluoromethoxy)phenyl]imidazo[4,5-h]quinolin-7-yl]methylenehydrazono]thiazolidin-4-one]
≥ 75%: mortality at 800 ppm [1] | mortality at 500 ppm [8] | mortality at 800 ppm [2] | mortality at 800 ppm [3] | mortality at 500 ppm [4] | mortality at 800 ppm [5] | mortality at 500 ppm [6]

Cc1cccc(C)c1N1CCCS/C1=N/N=C/c1ccc2c(ccc3c2ncn3-c2ccc(OC(F)(F)F)cc2)n1 [Compound C-23, (E)-3-(2,6-dimethylphenyl)-N-[(E)-[3-[4-(trifluoromethoxy)phenyl]imidazo[4,5-f]quinolin-7-yl]methyleneamino]-1,3-thiazinan-2-imine]
≥ 75%: mortality at 800 ppm [1] | mortality at 500 ppm [8] | mortality at 800 ppm [2] | mortality at 800 ppm [3] | mortality at 500 ppm [4] | mortality at 800 ppm [5] | mortality at 500 ppm [6] | mortality at 500 ppm [7]

CC(C)c1ccccc1NC(=S)N/N=C/c1ccc2c(ccc3c2ncn3-c2ccc(OC(F)(F)F)cc2)n1 [Compound C-3, 1-(2-isopropylphenyl)-3-[(E)-[3-[4-(trifluoromethoxy)phenyl]imidazo[4,5-f]quinolin-7-yl]methyleneamino]thiourea]
≥ 75%: mortality at 800 ppm [1] | mortality at 500 ppm [4] | mortality at 800 ppm [5] | mortality at 500 ppm [6] | mortality at 500 ppm [7]

CC(C)c1ccccc1/N=C1\SCC(=O)N1/N=C/c1cnc2c(ccc3c2ncn3-c2ccc(OC(F)(F)F)cc2)c1 [Compound C-16, (2Z)-2-(2-isopropylphenyl)imino-3-[(E)-[3-[4-(trifluoromethoxy)phenyl]imidazo[4,5-h]quinolin-7-yl]methyleneamino]thiazolidin-4-one]
≥ 75%: mortality at 800 ppm [1] | mortality at 500 ppm [8] | mortality at 800 ppm [2] | mortality at 800 ppm [3] | mortality at 500 ppm [4] | mortality at 800 ppm [5] | mortality at 500 ppm [6] | mortality at 500 ppm [7]

CC(C)c1ccccc1NC(=S)N/N=C/c1ccc2c(ccc3c(-c4ccc(OC(F)(F)F)cc4)n(C)nc32)n1 [Compound C-19, 1-(2-isopropylphenyl)-3-[(E)-[2-methyl-3-[4-(trifluoromethoxy)phenyl]pyrazolo[3,4-f]quinolin-7-yl]methyleneamino]thiourea]
≥ 75%: mortality at 800 ppm [1] | mortality at 800 ppm [2] | mortality at 800 ppm [3] | mortality at 500 ppm [4] | mortality at 800 ppm [5] | mortality at 500 ppm [7]

Cc1cccc(C)c1/N=C1\SCC(=O)N1/N=C/c1cc2ccc3c(ncn3-c3ccc(OC(F)(F)F)cc3)c2cn1 [Compound C-29, (2Z)-2-(2,6-dimethylphenyl)imino-3-[(E)-[3-[4-(trifluoromethoxy)phenyl]imidazo[4,5-h]isoquinolin-7-yl]methyleneamino]thiazolidin-4-one]
≥ 75%: mortality at 800 ppm [1] | mortality at 800 ppm [2] | mortality at 800 ppm [3] | mortality at 500 ppm [4] | mortality at 800 ppm [5] | mortality at 500 ppm [6] | mortality at 500 ppm [7]

CC(C)c1ccccc1N1C(=O)CS/C1=N\N=C\c1ccc2c(ccc3c2ncn3-c2ccc(OC(F)(F)F)cc2)n1 [Compound C-4, (2Z)-3-(2-isopropylphenyl)-2-[(E)-[3-[4-(trifluoromethoxy)phenyl]imidazo[4,5-f]quinolin-7-yl]methylenehydrazono]thiazolidin-4-one]
≥ 75%: mortality at 800 ppm [1] | mortality at 500 ppm [8] | mortality at 800 ppm [2] | mortality at 800 ppm [3] | mortality at 500 ppm [4] | mortality at 800 ppm [5] | mortality at 500 ppm [6] | mortality at 500 ppm [7]

CC(C)c1ccccc1N1C(=O)CS/C1=N\N=C\c1cc2ccc3c(ncn3-c3ccc(OC(F)(F)F)cc3)c2cn1 [Compound C-26, (2Z)-3-(2-isopropylphenyl)-2-[(E)-[3-[4-(trifluoromethoxy)phenyl]imidazo[4,5-h]isoquinolin-7-yl]methylenehydrazono]thiazolidin-4-one]
≥ 75%: mortality at 800 ppm [1] | mortality at 500 ppm [8] | mortality at 800 ppm [2] | mortality at 800 ppm [3] | mortality at 800 ppm [5] | mortality at 500 ppm [6] | mortality at 500 ppm [7]
